The record followed here is patent publication US20120220562A1, “Anti-Viral Compounds” (ABBOTT LABAORATORIES, priority 2011, published 2012).

Structures are written as SMILES.

In the assay the test system is HCV 1b-Con1 replicon. Nature of the assay: HCV 1b-Con1 replicon assay in the presence of 5% FBS. Conditions: Hepatitis C virus. It counts as cell-based. (In general: In antiviral work, replicon cells carry a viral genome segment that copies itself.)

As usually defined, the EC50 is the midpoint of the concentration-response curve.

With `COC(=O)N[C@H](C(=O)N1CCC[C@H]1c1nc2cc([C@H]3CC[C@H](c4cc5nc([C@@H]6CCCN6C(=O)[C@@H](NC(=O)OC)[C@@H](C)OC)[nH]c5cc4F)N3c3cc(F)c(N4CCC(C(C)(C)C)CC4)c(F)c3)c(F)cc2[nH]1)[C@@H](C)OC` [Example 6.13, methyl {(2S,3R)-1-[(2S)-2-{5-[(2R,5R)-1-[4-(4-tert-butylpiperidin-1-yl)-3,5-difluorophenyl]-5-(6-fluoro-2-{(2S)-1-[N-(methoxycarbonyl)-O-methyl-L-threonyl]pyrrolidin-2-yl}-1H-benzimidazol-5-yl)pyrrolidin-2-yl]-6-fluoro-1H-benzimidazol-2-yl}pyrrolidin-1-yl]-3-methoxy-1-oxobutan-2-yl}carbamate], the EC50 is under 0.1 nM. On to `COC(=O)N[C@H](C(=O)N1CCC[C@H]1c1nc2cc([C@H]3CC[C@H](c4cc5nc([C@@H]6CCCN6C(=O)[C@@H](NC(=O)OC)C6CCOCC6)[nH]c5cc4F)N3c3cc(F)c(N4CCC(C(C)(C)C)CC4)c(F)c3)c(F)cc2[nH]1)C1CCOCC1` [Example 6.14, dimethyl ({(2R,5R)-1-[4-(4-tert-butylpiperidin-1-yl)-3,5-difluorophenyl]pyrrolidine-2,5-diyl}bis{(6-fluoro-1H-benzimidazole-5,2-diyl)(2S)pyrrolidine-2,1-diyl [(1S)-2-oxo-1-(tetrahydro-2H-pyran-4-yl)ethane-2,1-diyl]}) biscarbamate], for which the EC50 was under 0.1 nM. With `COC(=O)N[C@H](C(=O)N1CCC[C@H]1c1nc2cc([C@H]3CC[C@H](c4cc5nc([C@@H]6CCCN6C(=O)[C@@H](NC(=O)OC)[C@@H](C)OC)[nH]c5cc4F)N3c3cc(F)c(N4CCN(c5ccc(C(F)(F)F)cc5)CC4)c(F)c3)c(F)cc2[nH]1)[C@@H](C)OC` [Example 6.15, methyl {(2S,3R)-1-[(2S)-2-{5-[(2R,5R)-1-(3,5-difluoro-4-{4-[4-(trifluoromethyl)phenyl]piperazin-1-yl}phenyl)-5-(6-fluoro-2-{(2S)-1-[N-(methoxycarbonyl)-O-methyl-L-threonyl]pyrrolidin-2-yl}-1H-benzimidazol-5-yl)pyrrolidin-2-yl]-6-fluoro-1H-benzimidazol-2-yl}pyrrolidin-1-yl]-3-methoxy-1-oxobutan-2-yl}carbamate], the EC50 was under 0.1 nM.

As for `COC(=O)N[C@H](C(=O)N1CCC[C@H]1c1nc2cc(F)c([C@H]3CC[C@H](c4cc5[nH]c([C@@H]6CCCN6C(=O)[C@@H](NC(=O)OC)C(C)C)nc5cc4F)N3c3cc(F)c(N4CCN(c5c(F)cccc5F)CC4)c(F)c3)cc2[nH]1)C(C)C` [Example 6.16, methyl {(2S)-1-[(2S)-2-{6-[(2R,5R)-1-{4-[4-(2,6-difluorophenyl)piperazin-1-yl]-3,5-difluorophenyl}-5-{5-fluoro-2-[(2S)-1-{(2S)-2-[(methoxycarbonyl)amino]-3-methylbutanoyl}pyrrolidin-2-yl]-1H-benzimidazol-6-yl}pyrrolidin-2-yl]-5-fluoro-1H-benzimidazol-2-yl}pyrrolidin-1-yl]-3-methyl-1-oxobutan-2-yl}carbamate], the concentration for a half-maximal effect (EC50) was under 0.1 nM. As for `COC(=O)N[C@H](C(=O)N1CCC[C@H]1c1nc(-c2ccc(-c3ccn(-c4ccc(-c5c[nH]c([C@@H]6CCCN6C(=O)[C@@H](NC(=O)OC)C(C)C)n5)cc4)c3-c3ccc(C(C)(C)C)cc3)cc2)c[nH]1)C(C)C` [Example 7.1, methyl {(2S)-1-[(2S)-2-(4-{4-[2-(4-tert-butylphenyl)-1-(4-{2-[(2S)-1-{(2S)-2-[(methoxycarbonyl)amino]-3-methylbutanoyl}pyrrolidin-2-yl]-1H-imidazol-4-yl}phenyl)-1H-pyrrol-3-yl]phenyl}-1H-imidazol-2-yl)pyrrolidin-1-yl]-3-methyl-1-oxobutan-2-yl}carbamate], the EC50 was under 0.1 nM.
